As usually defined, the GI50 is the concentration that inhibits growth by half. The low end stands for more potent growth inhibition, the high end for less potent growth inhibition. Broadly, the LC50 is the concentration that kills 50% of the test population. A high value points to lower toxicity.

The experiment deals with Panel (Carcinoma cell lines). Put plainly: Cytotoxic activity against human cancer cell lines was determined. The class given is functional.

Molecules are shown by their SMILES.

As to `CN(C)CCC1(C2=CCCC2)CC/C(=C\c2ccccc2)C1=O.Cl` (stereo unspecified), growth was halved (GI50) at 16.2 µM and the “Log TCI” value is given as -4.49.
As for `CN(C)CCC1(C2=CCCC2)CC/C(=C\c2ccc(Cl)cc2)C1=O.Cl` (stereo unspecified), the GI50 was 7.08 µM, the 50% lethal concentration (LC50) was 44.7 µM and the “Log TCI” value is on record as -4.72.
On the same counts, the results for `COc1ccc(/C=C2\CCC(CCN(C)C)(C3=CCCC3)C2=O)cc1Br.Cl` (stereo unspecified) are 4.47 µM, 35.5 µM and -4.89.
With `COc1cccc(/C=C2\CCC(CCN(C)C)(C3=CCCC3)C2=O)c1.Cl` (stereo unspecified), the GI50 is 15.5 µM and the “Log TCI” value is -4.52.
For `CN(C)CCC1(C2=CCCC2)CC/C(=C\c2ccc3c(c2)OCO3)C1=O.Cl` (stereo unspecified), it took 14.8 µM to inhibit growth by half (GI50), the LC50 is 60.3 µM and the “Log TCI” value is listed as -4.52.
Turning to `COc1ccc(/C=C2\CCC(CCN(C)C)(C3=CCCC3)C2=O)cc1.Cl` (stereo unspecified), halving of growth (GI50) required 17.8 µM and the “Log TCI” value is -4.42.
Regarding `CN(C)CCC1(C2=CCCC2)CC/C(=C\c2ccccc2Cl)C1=O.Cl` (stereo unspecified), it took 11.7 µM to inhibit growth by half (GI50), the LC50 was 60.3 µM and the “Log TCI” value is recorded as -4.56.
On the same counts, the results for `COc1ccccc1/C=C1\CCC(CCN(C)C)(C2=CCCC2)C1=O.Cl` (stereo unspecified) are 15.8 µM, 70.8 µM and -4.43.

The values above are taken from ChEMBL document CHEMBL1127770, “2-(1-Cyclopenten-1-yl)-2-[2-(dimethylamino)ethyl]-5-(E)-benzylidene cyclopentanone hydrochlorides: a new series of moderate cytotoxic agents” (1994).
